US10344019B2 (priority 2010, dated 2019)
Like-named read-outs stand apart in the source and are kept apart here.

Columns and labels:
Assay in all cases: microbe, parasite or virus in culture
Assay type in all cases: cell-based
[1] = system: HCV 1a RLuc cells (dicistronic genotype 1a H77 replicon, RLuc reporter); conditions: genotype 1a H77 replicon, read-out: 1a
Procedure: (§1) Evaluation of cell-based anti-HCV activity: Antiviral potency (EC50) was determined using a Renilla luciferase (RLuc)-based HCV replicon reporter assay. To perform the assay for genotype 1 and 2a JFH-1, HCV 1b RLuc cells (harboring a dicistronic genotype 1b Con1 replicon that encodes a RLuc reporter), or HCV 1a RLuc cells (harboring a dicistronic genotype 1a H77 replicon that encodes a RLuc reporter), or HCV 2a JFH-1 Rluc cells (harboring a dicistronic genotype 2a JFH-1 replicon that encodes a RLuc reporter) were dispensed into 384-well plates. To perform the assay for genotype 2a (with M31 present) or 2b, HCV 2a Rluc or 2b Rluc cells (both with M31 present) harboring a dicistronic NS5A chimeric genotype 2a JFH-1 replicon that encodes a RLuc reporter and either genotype 2a J6 strain NS5A gene or genotype 2b MD2b-1 NS5A gene (based on Los Alamos HCV database isolates, both with M31 present) respectively, were dispensed into 384-well plates. To perform the assay for genotype 3 and 4, HCV 3a RLuc or 4a Rluc cells harboring a dicistronic NS5A chimeric genotype 1b Con1 replicon that encodes a RLuc reporter and either a consensus genotype 3a NS5A gene or genotype 4a NS5A gene (based on Los Alamos HCV database isolates) respectively, were dispensed into 384-well plates. Compounds were re-suspended in DMSO at a concentration of 10 mM and serially diluted in DMSO either manually or using an automated pipeting instrument. Serially diluted compounds were mixed with cell culture media and added to the seeded cells. […] 72 hours later, cells were lysed and Renilla luciferase activity quantified as recommended by the manufacturer (Promega-Madison, Wis.). Non-linear regression was performed to calculate EC50 values.

[2] = system: HCV 1b RLuc cells (dicistronic genotype 1b Con1 replicon, RLuc reporter)
Procedure: as §1

[3] = system: HCV 2a JFH-1 Rluc cells (dicistronic genotype 2a JFH-1 replicon, RLuc reporter); conditions: genotype 2a JFH-1 replicon, read-out: 2a JFH
Procedure: as §1

[4] = system: HCV 3a RLuc cells (NS5A chimeric genotype 1b Con1 replicon with consensus genotype 3a NS5A gene)
Procedure: as §1

[5] = Hepatitis C virus, 72 h, Table 1, 72 hours
[6] = Hepatitis C virus, 72 h, read-out: 1b (nM)
[7] = Hepatitis C virus, 72 h, Table 2, 72 hours
[8] = Hepatitis C virus, read-out: 3a, Table 2, genotype 3a NS5A chimeric replicon
[9] = Hepatitis C virus, RLuc reporter
[10] = Hepatitis C virus, read-out: 1b (nM)
[11] = Hepatitis C virus, read-out: 3a, genotype 3a NS5A chimeric 1b Con1 replicon

Row | SMILES | EC50 [2, 6] | EC50 [1, 7] | EC50 [3, 7] | EC50 [4, 8] | further results
1 | COC(=O)N[C@H](C(=O)N1CCC[C@H]1c1ncc(-c2ccc3c4c(ccc3c2)-c2ccc(-c3cnc([C@@H]5CCCN5C(=O)C(c5ccccc5)N(C)C)[nH]3)cc2CO4)[nH]1)C(C)C (stereo partly drawn) [Example 3] | 0.011 nM |  |  |  | EC50 [1, 5]: 1 to 999 pM; EC50 [3, 5]: 1 to 999 pM; EC50 ([4]; Hepatitis C virus, read-out: 3a, Table 1, genotype 3a NS5A chimeric replicon): 1 to 990 pM
2 | COC(=O)NC(C(=O)N1CCC[C@@H]1c1ncc(-c2cc3c4c(c2)OCc2cc(-c5cnc([C@H]6CCCN6C(=O)[C@@H](NC(=O)OC)C(C)C)[nH]5)cc(c2-4)OC3)[nH]1)C(C)C (stereo partly drawn) [Example 11] | 0.258 nM |  |  |  | EC50 [1, 5]: 1000 to 44000 pM; EC50 [3, 5]: 1 to 999 pM
3 | COC(=O)N[C@H](C(=O)N1CCC[C@H]1c1ncc(-c2ccc(-c3ccc4cc(-c5cnc([C@@H]6CCCN6C(=O)[C@H](NC(=O)OC)c6ccccc6)[nH]5)ccc4c3)cc2)[nH]1)C(C)C [Example 27] |  |  |  |  | EC50 ([1]; Table 2, 72 hours): 1 to 999 pM; EC50 ([2]; read-out: 1b): 0.011 nM; EC50 ([3]; Table 2, 72 hours): 1 to 999 pM; EC50 ([4]; read-out: 3a, Table 2, genotype 3a NS5A chimeric replicon): 1 to 990 pM
4 | COC(=O)N[C@H](C(=O)N1[C@@H]2CC[C@@H](C2)[C@H]1c1ncc(-c2ccc(-c3ccc4cc(-c5cnc([C@@H]6CC7(CC7)CN6C(=O)C(c6ccccc6)N6CCOCC6)[nH]5)ccc4c3)cc2)[nH]1)C(C)C (stereo partly drawn) [Example 28] | 0.023 nM | 1000 to 44000 pM | 1000 to 44000 pM | 1 to 990 pM | 
5 | COC(=O)N[C@H](C(=O)N1CCC[C@H]1c1ncc(-c2ccc3cc(-c4ccc(-c5cnc([C@@H]6CCCN6C(=O)[C@H](NC(=O)OC)c6ccccc6)[nH]5)cc4)ccc3c2)[nH]1)C(C)C [Example 29] | 0.014 nM | 1 to 999 pM | 1 to 999 pM | 1 to 990 pM | 
6 | COC(=O)N[C@H](C(=O)N1CCC[C@H]1c1ncc(-c2ccc(-c3ccc4cc(-c5cnc([C@@H]6CCCN6C(=O)[C@H](NC(=O)OC)c6ccccc6)[nH]5)ccc4c3)cc2)[nH]1)C(C)C [Example 30] | 0.008 nM | 1 to 999 pM | 1 to 999 pM | 1 to 990 pM | 
7 | COC(=O)N[C@H](C(=O)N1CCC[C@H]1c1nc(-c2ccc3cc(-c4ccc(-c5cnc([C@@H]6CCCN6C(=O)[C@@H](c6ccccc6)N(C)C)[nH]5)cc4)ccc3c2)c[nH]1)C(C)C [Example 31] | 0.014 nM | 1 to 999 pM | 1 to 999 pM | 1 to 990 pM | 
8 | COC(=O)N[C@H](C(=O)N1CCC[C@H]1c1ncc(-c2ccc3cc(-c4ccc(-c5cnc([C@@H]6C[C@H](C)CN6C(=O)[C@H](NC(=O)OC)c6ccccc6)[nH]5)cc4)ccc3c2)[nH]1)C(C)C [Example 32] | 0.02 nM | 1 to 999 pM | 1 to 999 pM | > 5000 pM | 
9 | COC(=O)N[C@H](C(=O)N1CC(=O)C[C@H]1c1ncc(-c2ccc(-c3ccc4cc(-c5cnc([C@@H]6CCCN6C(=O)[C@@H](c6ccccc6)N(C)C)[nH]5)ccc4c3)cc2)[nH]1)C(C)C [Example 33] | 0.009 nM | 1 to 999 pM | 1 to 999 pM | 1 to 990 pM | 
10 | COC(=O)N[C@H](C(=O)N1CCC[C@H]1c1ncc(-c2ccc3cc(-c4ccc(-c5cnc([C@@H]6CC(=O)CN6C(=O)[C@@H](c6ccccc6)N(C)C)[nH]5)cc4)ccc3c2)[nH]1)C(C)C [Example 34] | 0.018 nM | 1 to 999 pM | 1 to 999 pM | 1 to 990 pM | 
11 | COC(=O)N[C@H](C(=O)N1CC2(C[C@H]1c1ncc(-c3ccc(-c4ccc5cc(-c6cnc([C@@H]7CCCN7C(=O)[C@H](NC(=O)OC)c7ccccc7)[nH]6)ccc5c4)cc3)[nH]1)OCCO2)C(C)C [Example 35] | 0.008 nM | 1 to 999 pM | 1 to 999 pM | 1 to 990 pM | 
12 | CCN(CC)[C@@H](C(=O)N1CCC[C@H]1c1ncc(-c2ccc3cc(-c4ccc(-c5cnc([C@@H]6CC7(COCO7)CN6C(=O)[C@@H](NC(=O)OC)C(C)C)[nH]5)cc4)ccc3c2)[nH]1)c1ccccc1 (stereo partly drawn) [Example 36] | 0.01 nM | 1 to 999 pM | 1 to 999 pM | 1 to 990 pM | 
13 | COC(=O)N[C@H](C(=O)N1CC2(CC2)C[C@H]1c1ncc(-c2ccc3c(c2)C(F)(F)c2cc(-c4cnc([C@@H]5[C@H]6CC[C@H](C6)N5C(=O)[C@H](NC(=O)OC)c5ccccc5)[nH]4)ccc2-3)[nH]1)C(C)C [Example 37] | 0.004 nM | 1 to 999 pM | 1000 to 44000 pM | 1 to 990 pM | 
14 | COC(=O)N[C@H](C(=O)N1CC2(C[C@H]1c1ncc(-c3ccc4c(c3)C(F)(F)c3cc(-c5ccc6nc(C7[C@H]8CC[C@H](C8)N7C(=O)[C@@H](NC(=O)OC)C(C)C)[nH]c6c5)ccc3-4)[nH]1)OCCO2)C(C)C (stereo partly drawn) [Example 38] | 0.003 nM | 1 to 999 pM | 1000 to 44000 pM | > 5000 pM | 
15 | COC(=O)N[C@H](C(=O)N1[C@@H]2CC[C@@H](C2)[C@H]1c1ncc(-c2ccc(-c3ccc4c(ccc5nc([C@@H]6CCCN6C(=O)[C@@H](NC(=O)OC)C6CCOCC6)[nH]c54)c3)cc2)[nH]1)C(C)C [Example 82] | 0.042 nM | 1 to 999 pM | 1 to 999 pM | 1 to 990 pM | 
16 | COC(=O)NC(C(=O)N1CC2(C[C@H]1c1nc3c([nH]1)-c1ccc(-c4ccc5c(ccc6nc([C@@H]7CCCN7C(=O)[C@@H](NC(=O)OC)C(C)C)[nH]c65)c4)cc1CC3)OCCO2)C1CCOCC1 (stereo partly drawn) [Example 87] | 0.163 nM | 1 to 999 pM | 1 to 999 pM | 1 to 990 pM | 
17 | COC(=O)N[C@H](C(=O)N1CCC[C@H]1c1ncc(-c2ccc(-c3ccc4cc(-c5cnc([C@@H]6CCCN6C(=O)[C@@H](NC(=O)OC)C(C)C)[nH]5)ccc4c3)cc2)[nH]1)c1ccccc1Cl [Example 103] |  |  |  |  | EC50 [1, 9]: 1 to 999 pM; EC50 [2, 10]: 0.007 nM; EC50 [3, 9]: 1 to 999 pM; EC50 [4, 11]: 1 to 990 pM
18 | COC(=O)N[C@H](C(=O)N1CCC[C@H]1c1ncc(-c2ccc3cc(-c4ccc(-c5cnc([C@@H]6C[C@@H](F)CN6C(=O)[C@H](NC(=O)OC)c6ccccc6)[nH]5)cc4)ccc3c2)[nH]1)C(C)C [Example 140] |  |  |  |  | EC50 ([1]; RLuc reporter): 1 to 999 pM; EC50 ([4]; read-out: 3a, genotype 3a NS5A chimeric 1b Con1 replicon): 1 to 990 pM
19 | COC(=O)N[C@H](C(=O)N1CCC[C@H]1c1ncc(-c2ccc3cc(-c4ccc(-c5cnc([C@@H]6CCCN6C(=O)[C@H](NC(=O)OC(C)(C)C)c6ccccc6)[nH]5)cc4)ccc3c2)[nH]1)C(C)C [Example 186] |  |  |  |  | EC50 [1, 9]: 1 to 999 pM; EC50 [2, 10]: 0.004 nM; EC50 [3, 9]: 1 to 999 pM
20 | COC(=O)N[C@H](C(=O)N1CCC[C@H]1c1ncc(-c2ccc3c(c2)CCc2cc(-c4cnc([C@@H]5CCCN5C(=O)C(c5ccccc5)N(C)C)[nH]4)ccc2-3)[nH]1)C(C)C (stereo partly drawn) [Example 190] |  |  |  |  | EC50 [4, 11]: 1 to 990 pM
21 | COC(=O)NC(C(=O)N1C[C@H](C)C[C@H]1c1ncc(-c2ccc(-c3ccc4cc(-c5cnc([C@@H]6CCCN6C(=O)[C@@H](NC(=O)OC)C6CCOCC6)[nH]5)ccc4c3)cc2)[nH]1)c1cnccn1 (stereo partly drawn) [Example 254] |  |  |  |  | EC50 [1, 9]: 1 to 999 pM; EC50 [2, 10]: 0.077 nM; EC50 [3, 9]: 1 to 999 pM
22 | COC(=O)NC(C(=O)N1C[C@H](C)C[C@H]1c1ncc(-c2ccc(-c3ccc4cc(-c5cnc([C@@H]6CCCN6C(=O)[C@@H](NC(=O)OC)C(C)C)[nH]5)ccc4c3)cc2)[nH]1)c1cnccn1 (stereo partly drawn) [Example 255] |  |  |  |  | EC50 [1, 9]: 1 to 999 pM; EC50 [2, 10]: 0.015 nM; EC50 [3, 9]: 1000 to 44000 pM
23 | COC(=O)N[C@H](C(=O)N1CCC[C@H]1c1ncc(-c2ccc3cc(-c4ccc(-c5cnc([C@@H]6CCCN6C(=O)[C@@H](NC(=O)OCc6ccccc6)C6CCSCC6)[nH]5)cc4)ccc3c2)[nH]1)C(C)C [Example 276] |  |  |  |  | EC50 ([1]; RLuc reporter): > 44000 pM; EC50 ([3]; RLuc reporter): > 44000 pM
